Laboratory results from paper PMC9917560, “Design, Synthesis and Antimicrobial Evaluation of New N-(1-Hydroxy-1,3-dihydrobenzo[c][1,2]oxaborol-6-yl)(hetero)aryl-2-carboxamides as Potential Inhibitors of Mycobacterial Leucyl-tRNA Synthetase” (International Journal of Molecular Sciences, 2023).
Values after ≈ are worked out from the molar mass of the structure shown. Read-outs that look alike come from different tables or passages of the source.

Tests used:
Format in all cases: cell-based
[1] = system: Mycobacterium tuberculosis H37Rv CNCTC My 331/88 (ATCC 27294); assay: Microplate Alamar Blue assay vs Mtb H37Rv; details: Mycobacterium tuberculosis, pH 6.6, MABA, Middlebrook 7H9 pH 6.6, recalculated from µg/mL; read-out: MIC Mtb H37Rv
[2] = system: Mycobacterium tuberculosis H37Ra ITM-M006710 (ATCC 9431); assay: Antimycobacterial microdilution (resazurin) vs Mtb H37Ra; details: Middlebrook 7H9, resazurin, recalculated from µg/mL, read-out: MIC Mtb H37Ra
[3] = system: Mycobacterium avium DSM 44,156 (ATCC 25291); assay: Antimycobacterial microdilution (resazurin) vs M. avium; details: Mycobacterium avium, Middlebrook 7H9, resazurin; read-out: MIC M. avium
[4] = system: Mycolicibacterium smegmatis DSM 43,465 (ATCC 607); assay: Antimycobacterial microdilution (resazurin) vs M. smegmatis; details: Middlebrook 7H9, resazurin, read-out: MIC M. smeg.
[5] = system: Mycobacterium kansasii DSM 44,162 (ATCC 12478); assay: Antimycobacterial microdilution (resazurin) vs M. kansasii; details: Middlebrook 7H9, resazurin, read-out: MIC M. kansasii
[6] = system: Mycolicibacterium aurum DSM 43,999 (ATCC 23366); assay: Antimycobacterial microdilution (resazurin) vs M. aurum; details: Middlebrook 7H9, resazurin, read-out: MIC M. aurum
[7] = system: Candida albicans CCM 8320 (ATCC 24433); assay: Antifungal microdilution broth (EUCAST); details: for MIC: read-out: MIC (visual detection)
[8] = system: Aspergillus fumigatus ATCC 204305; assay: Antifungal microdilution broth (EUCAST); details: for MIC: read-out: MIC (visual detection)
[9] = system: Aspergillus flavus CCM 8363; assay: Antifungal microdilution broth (EUCAST); details: for MIC: read-out: MIC (visual detection)
[10] = system: Lichtheimia corymbifera CCM 8077; assay: Antifungal microdilution broth (EUCAST); details: for MIC: read-out: MIC (visual detection)
[11] = system: Trichophyton interdigitale CCM 8377 (ATCC 9533); assay: Antifungal microdilution broth (EUCAST); details: for MIC: read-out: MIC (visual detection)
[12] = system: Candida parapsilosis CCM 8260 (ATCC 22019); assay: Antifungal microdilution broth (EUCAST); details: Lodderomyces parapsilosis; for MIC: read-out: MIC (visual detection)
[13] = system: Candida tropicalis CCM 8264 (ATCC 750); assay: Antifungal microdilution broth (EUCAST); details: for MIC: read-out: MIC (visual detection)
[14] = system: Candida krusei CCM 8271 (ATCC 6258); assay: Antifungal microdilution broth (EUCAST); details: Pichia kudriavzevii; for MIC: read-out: MIC (visual detection)
[15] = system: Escherichia coli CCM 3954 (ATCC 25922); assay: Antibacterial microdilution broth (EUCAST); details: Escherichia coli
[16] = system: methicillin-resistant Staphylococcus aureus subsp. aureus (MRSA) CCM 4750 (ATCC 43300); assay: microbe, parasite or virus in culture; details: 24 h
[17] = system: Acinetobacter baumannii DSM 30007 (ATCC 19606); assay: Antibacterial microdilution broth (EUCAST); details: 24 h
[18] = system: Enterococcus faecalis CCM 4224 (ATCC 29212); assay: Antibacterial microdilution broth (EUCAST); details: 24 h
[19] = system: Pseudomonas aeruginosa CCM 3955 (ATCC 27853); assay: Antibacterial microdilution broth (EUCAST)
[20] = system: Staphylococcus aureus subsp. aureus CCM 4223 (ATCC 29213); assay: Antibacterial microdilution broth (EUCAST)
[21] = system: Klebsiella pneumoniae CCM 4415 (ATCC 10031); assay: Antibacterial microdilution broth (EUCAST); details: Klebsiella pneumoniae
[22] = system: Staphylococcus epidermidis CCM 4418 (ATCC 12228); assay: Antibacterial microdilution broth (EUCAST)
[23] = read-out: MIC (spectrophotometric detection, 530 nm)
[24] = read-out: MIC (visual detection)
[25] = 24 h, read-out: IC50 (spectrophotometric detection, 530 nm)

O=C(O)c1cn(C2CC2)c2cc(N3CCNCC3)c(F)cc2c1=O [CIP, ciprofloxacin, reference compound]
MIC [1]: 0.6 µM (≈ 0.199 µg/mL) | MIC [2]: 1.51 µM (≈ 0.5 µg/mL) | MIC [3]: 1.51 µM (≈ 0.5 µg/mL) | MIC [4]: 0.19 µM (≈ 0.063 µg/mL) | MIC [5]: 0.75 µM (≈ 0.249 µg/mL) | MIC [6]: 0.05 µM (≈ 0.0166 µg/mL)

C[C@@H]1[C@H](O)[C@@H](C)/C=C/C=C/C=C/C=C/C=C/C=C/C=C/[C@H](O[C@@H]2O[C@H](C)[C@@H](O)[C@H](N)[C@@H]2O)C[C@@H]2O[C@](O)(C[C@@H](O)C[C@@H](O)[C@H](O)CC[C@@H](O)C[C@@H](O)CC(=O)O[C@H]1C)C[C@H](O)[C@H]2C(=O)O [amphotericin B, reference compound]
IC90 ([7]; Candida albicans CCM 8320, 24 h, read-out: IC90 (spectrophotometric detection, 530 nm)): 1080 nM | MIC ([7]; Candida albicans CCM 8320, 24 h): 1.08 µM (≈ 1 µg/mL) | IC90 ([8]; ATCC204305, Aspergillus fumigatus ATCC 204305, 48 h, read-out: IC90 (spectrophotometric detection, 530 nm)): 4330 nM | MIC ([8]; ATCC204305, Aspergillus fumigatus ATCC 204305, 48 h): 4.33 µM (≈ 4 µg/mL) | IC90 ([9]; CCM8363, Aspergillus flavus CCM 8363, 48 h, read-out: IC90 (spectrophotometric detection, 530 nm)): 4330 nM | MIC ([9]; CCM8363, Aspergillus flavus CCM 8363, 48 h): 4.33 µM (≈ 4 µg/mL) | IC90 ([10]; CCM8077, Lichtheimia corymbifera CCM 8077, 48 h, read-out: IC90 (spectrophotometric detection, 530 nm)): 1080 nM | MIC ([10]; CCM8077, Lichtheimia corymbifera CCM 8077, 48 h): 1.08 µM (≈ 1 µg/mL) | IC90 ([11]; Trichophyton interdigitale CCM 8377, read-out: IC90 (spectrophotometric detection, 530 nm)): 1080 nM | MIC ([11]; Trichophyton interdigitale CCM 8377): 1.08 µM (≈ 1 µg/mL) | IC90 ([12]; Candida parapsilosis CCM 8260, 24 h, read-out: IC90 (spectrophotometric detection, 530 nm)): 541 nM | MIC ([12]; Candida parapsilosis CCM 8260, 24 h): 0.541 µM (≈ 0.5 µg/mL) | IC90 ([13]; ATCC 750 / CCM 8264 / CCM 8321, CCM 8321, 24 h, read-out: IC90 (spectrophotometric detection, 530 nm)): 1080 nM | MIC ([13]; ATCC 750 / CCM 8264 / CCM 8321, CCM 8321, 24 h): 1.08 µM (≈ 1 µg/mL) | IC90 ([14]; Candida krusei CCM 8271, 24 h, read-out: IC90 (spectrophotometric detection, 530 nm)): 1080 nM | MIC ([14]; Candida krusei CCM 8271, 24 h): 1.08 µM (≈ 1 µg/mL)

CNC(C)C1CCC(N)C(OC2C(N)CC(N)C(OC3OCC(C)(O)C(NC)C3O)C2O)O1 (stereo not drawn) [gentamicin, reference compound]
MIC ([15]; E. coli CCM 3954, 95% growth inhibition, 24 h, read-out: MIC (spectrophotometric detection, 530 nm)): 2.09 µM (≈ 1 µg/mL) | MIC ([15]; E. coli CCM 3954, 24 h, read-out: MIC (visual detection)): > 2.09 µM | MIC [16, 23]: > 16.8 µM | MIC [16, 24]: > 16.8 µM | MIC [17, 23]: 16.8 µM (≈ 8 µg/mL) | MIC [17, 24]: 16.8 µM (≈ 8 µg/mL) | MIC [18, 23]: > 16.8 µM | MIC [18, 24]: > 16.8 µM | MIC ([19]; P. aeruginosa CCM 3955, 95% growth inhibition, 24 h, read-out: MIC (spectrophotometric detection, 530 nm)): 1.05 µM (≈ 0.5 µg/mL) | MIC ([19]; P. aeruginosa CCM 3955, 24 h, read-out: MIC (visual detection)): 1.05 µM (≈ 0.5 µg/mL) | MIC ([20]; S. aureus CCM 4223, 95% growth inhibition, 24 h, read-out: MIC (spectrophotometric detection, 530 nm)): 2.09 µM (≈ 1 µg/mL) | MIC ([20]; S. aureus CCM 4223, 24 h, read-out: MIC (visual detection)): 1.05 µM (≈ 0.5 µg/mL) | MIC ([21]; K. pneumoniae CCM 4415, 95% growth inhibition, 24 h, read-out: MIC (spectrophotometric detection, 530 nm)): 1.05 µM (≈ 0.5 µg/mL) | MIC ([21]; K. pneumoniae CCM 4415, 24 h, read-out: MIC (visual detection)): 1.05 µM (≈ 0.5 µg/mL) | MIC ([22]; S. epidermidis CCM 4418, 95% growth inhibition, 24 h, read-out: MIC (spectrophotometric detection, 530 nm)): 0.131 µM (≈ 0.0626 µg/mL) | MIC ([22]; S. epidermidis CCM 4418, 24 h, read-out: MIC (visual detection)): 0.131 µM (≈ 0.0626 µg/mL)

C[C@@H](c1ncncc1F)[C@](O)(Cn1cncn1)c1ccc(F)cc1F [voriconazole, reference compound]
IC50 ([7]; Candida albicans, 24 h, read-out: IC50 (spectrophotometric detection, 530 nm)): 86 nM | MIC ([7]; Candida albicans, 24 h): > 45.8 µM | IC50 ([8]; Aspergillus fumigatus, ATCC204305, 48 h, read-out: IC50 (spectrophotometric detection, 530 nm)): 716 nM | MIC ([8]; Aspergillus fumigatus, ATCC204305, 48 h): 2.86 µM (≈ 1 µg/mL) | IC50 ([9]; Aspergillus flavus, CCM8363, 48 h, read-out: IC50 (spectrophotometric detection, 530 nm)): 5730 nM | MIC ([9]; Aspergillus flavus, CCM8363, 48 h): > 45.8 µM | IC50 ([10]; Lichtheimia corymbifera, CCM8077, 48 h, read-out: IC50 (spectrophotometric detection, 530 nm)): > 45800 nM | MIC ([10]; Lichtheimia corymbifera, CCM8077, 48 h): > 45.8 µM | IC50 ([11]; Trichophyton interdigitale, read-out: IC50 (spectrophotometric detection, 530 nm)): 2860 nM | MIC ([11]; Trichophyton interdigitale): > 45.8 µM | IC50 [12, 25]: 86 nM | MIC ([12]; 24 h): > 45.8 µM | IC50 ([13]; ATCC 750 / CCM 8264 / CCM 8321, 24 h, read-out: IC50 (spectrophotometric detection, 530 nm)): 179 nM | MIC ([13]; ATCC 750 / CCM 8264 / CCM 8321, 24 h): > 45.8 µM | IC50 [14, 25]: 716 nM | MIC ([14]; 24 h): > 45.8 µM
